Consider one compound from US20120064174A1, “METHOD FOR STIMULATING HAIR GROWTH” (LEGACY HEALTHCARE HOLDING LTD., priority 2010, published 2012).

This experiment has as its system scalp of male volunteers. Briefly: Double-blind placebo-controlled clinical study, hair diameter measurement by hair clipping. As to conditions: after 32-51 days of treatment, one volunteer per row. It counts as in vivo, human. The procedure:
[…] The male volunteers had been under treatment of a 5-alpha-reductase inhibitor treatment (Finasteride 1 mg) started within the last 3 months, or for the last three years. The first objective is to assess if the hair diameter of volunteers under a 5-alpha-reductase inhibitor (Finasteride 1 mg) and Cellium (TRADEMARK) GC 210 mg/mL is higher than on volunteers under a 5-alpha-reductase inhibitor (Finasteride 1 mg) and placebo only. The hair diameters were compared using a starting or initial hair diameter measurement and a post-study hair diameter measurement as quantified later herein. The second objective is to evaluate the cosmetic acceptance in the studied population. A prospective, double-blind, monocentric, randomized testing along with a placebo testing is conducted with two parallel groups. […] Information on self-assessed effectiveness, appreciation, and overall satisfaction was solicited from volunteers using a questionnaire. […] Exemplary secondary criteria include photographic documentation for qualitative purposes and also self-assessed effectiveness, appreciation, and overall satisfaction as indicated by a questionnaire given to participants. […]

Each structure is given as a SMILES string. Where “and” joins values, the source holds several entries; their conditions need not be identical. Equal values may be shown once.

With `CC(C)(C)NC(=O)[C@H]1CC[C@H]2[C@@H]3CC[C@H]4NC(=O)C=C[C@]4(C)[C@H]3CC[C@]12C` [Finasteride + Placebo, Finasteride], the “Variation of diameter (in %)” value (relative to first diameter) is 4.4% and −0.7% and −2.4%. Further, the “Variation of diameter (μm)” value (second minus first diameter) is 2.2 μm and −0.3 μm and −1.2 μm.
